Measured values from patent US9861116B2, “Pet food compositions for inducing a satiety response” (Hill's Pet Nutrition, Inc., priority 2010, dated 2018).

Tests used:
[1] = system: LEPR; assay: Affymetrix feline GeneChip gene expression analysis, LEPR; type: cell-based; conditions: in all cell lines tested (CCL-150, CCL-176, CRL-2032, CCL-94); amount tested 0.005 mg/mL, 0.05 mg/mL; treatment intensity/control intensity
Description: (§1) Gene expression was analyzed using proprietary feline GeneChip® Arrays prepared by Affymetrix, Inc., Santa Clara, Calif. 95051. Total RNA is reverse transcribed into cDNA. The cDNA is used to generate cRNA which is fragmented and used as probes for GeneChip hybridization. The gene chip is washed and the hybridization signal is measured with an Affymetrix laser scanner. The hybridization data is then validated and normalized for further analysis.
(§2) Materials: Affymetrix provided most of the reagents and kit. Other reagents listed in the Affymetrix Manual but not supplied in the kit were obtained separately. Refer to GeneChip Expression Analysis Technical Manual (701021 Rev.4) for the details.
(§3) Equipment. […]
(§4) Affymetrix gene chips are used to determine the effect of various test substances or ingredients on gene expression in four feline cell lines and appropriate controls. […] Gene expression was measured for the treatment cell lines and controls. The gene expression data was determined to be either “up” or “down”-regulated for any given treatment. The decision on whether a gene is “up” or “down” is based on the fold change, which is calculated as treatment intensity/control intensity for each individual probe.

[2] = system: NPY; assay: Affymetrix feline GeneChip gene expression analysis, NPY; type: cell-based; conditions: in two cell lines tested, amount tested 0.003 mg/mL, 0.03 mg/mL, treatment intensity/control intensity
Description: as §1, §2, §3, §4

Row | Structure (SMILES) | Fold Change (gene expression, LEPR) [1] | Fold Change (gene expression, NPY) [2]
1 | Oc1ccc(C=Cc2cc(O)cc(O)c2)cc1 [Resveratrol] | 1.96 (in all cell lines | –
2 | CC1=C(/C=C/C(C)=C/C=C/C(C)=C/C=C/C=C(C)/C=C/C=C(C)/C=C/C2=C(C)CCCC2(C)C)C(C)(C)CCC1 [Beta-Carotene] | – | −1.75 (in two cell
